Experimental data reported in ChEMBL document CHEMBL3108715, “Pan-histone demethylase inhibitors simultaneously targeting Jumonji C and lysine-specific demethylases display high anticancer activities” (J Med Chem, 2014).
Calls of active or inactive are those of the source.

Tests used:
Format in all cases: functional, cell-based
HCT-116 [1] = assay: Antimigratory activity against human HCT116 cells at 50 uM after 72 hrs
HCT-116 [2] = assay: Cytotoxicity against human HCT116 cells at 50 uM after 72 hrs
LNCaP [3] = assay: Antimigratory activity against human LNCAP cells at 50 uM after 72 hrs
LNCaP [4] = assay: Cytotoxicity against human LNCAP cells at 50 uM after 72 hrs

Measured: Activity

O=C(CCCCCCC(=O)Nc1ccccc1)NO
active: all assays above
